From US9386767B2, “Derivatives of dillapiol and related monolignans and use thereof” (UNIVERSITY OF OTTAWA, priority 2011, dated 2016)
Where “and” joins values, the source holds several entries; their conditions need not be identical. Equal values may be shown once. Read-outs that look alike come from different tables or passages of the source.

What was measured:
[1] = target: T1, CYP3A4 (BDGentest) (Homo sapiens, UniProt P08684); assay: New CYP3A4 bioassay with dibenzylfluorescein (DBF) substrate (Foster et al. 2011); assay type: biochemical; settings: for IC50: human microsomes; for % Activity relative to dillapiol = 1: new CYP3A4 bioassay, inhibition relative to dillapiol
T1 construct: purchased BDGentest
T1 sequence (P08684 whole entry): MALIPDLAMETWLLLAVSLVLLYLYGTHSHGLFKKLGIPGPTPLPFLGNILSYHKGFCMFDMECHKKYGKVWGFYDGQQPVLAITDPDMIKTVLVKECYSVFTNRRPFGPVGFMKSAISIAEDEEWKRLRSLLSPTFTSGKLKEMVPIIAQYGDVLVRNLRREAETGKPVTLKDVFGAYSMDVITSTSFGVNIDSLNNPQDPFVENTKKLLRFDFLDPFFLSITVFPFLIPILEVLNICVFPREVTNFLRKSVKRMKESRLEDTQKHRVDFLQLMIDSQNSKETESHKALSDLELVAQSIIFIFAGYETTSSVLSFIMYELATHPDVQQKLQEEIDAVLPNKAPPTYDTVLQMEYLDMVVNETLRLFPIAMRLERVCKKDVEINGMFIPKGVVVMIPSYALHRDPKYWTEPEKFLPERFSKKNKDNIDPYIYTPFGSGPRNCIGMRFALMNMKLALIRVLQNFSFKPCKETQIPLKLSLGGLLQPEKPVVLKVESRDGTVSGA
Experimental: (§1) In the second set of experiments, new CYP3A4 enzyme inhibition assays were conducted with a designed set of analogs and newer method described by Foster et al. (J. Agric. Food Chem, 2011, 59(9):5159-5163). This assay using the substrate dibenzylfluorescein (DBF) is considered more representative of CYP3A4 activity as compared to the benzyloxyresorufin assay previously used (Budzinski et al., 2000, Phytomedicine, 7(4):273-282).
Aliquots (10 μL) of stock solutions of the undiluted products were screened for their ability to inhibit CYP3A4 (BDGentest) metabolism of the non-fluorescent dibenzylfluorescein (DBF) substrates to the fluorescent metabolite using an in vitro fluorometric microtiter plate assay (CytoFluor Series 4000 multi-well plate reader). Briefly, assays were performed with 10 μL of product in clear-bottom, opaque-welled microtiter plates (96 well, Corning Costar). Control and control blank wells contained 5% ethanol, and test and test blank wells contained the product. All wells tested contained distilled water, β-nicotinamide adenine dinucleotide phosphate, reduced form (NADPH, Sigma Chemicals), and the enzyme substrate DBF (final concentration of 1 μM/well), for a total reaction volume of 200 μL. Control and test wells also contained live isozyme, within human microsomes, in phosphate buffer solution (PBS; 0.5 M, pH 7.4), and control blank and test blank wells contained denatured isoenzyme in PBS. Fluorescence was measured at 485 nm excitation and 530 nm emission, with a gain of 50.

[2] = target: human cytochrome CYP3A4 (Homo sapiens, UniProt P08684); assay: CYP3A4 inhibition assay of dillapiol derivatives (earlier benzyloxyresorufin assay); assay type: biochemical; settings: for Rel. Activity Dillapiol = 1.0: CYP3A4 inhibition relative to dillapiol
Sequence of human cytochrome CYP3A4 (P08684 whole entry): as above
Experimental: A suite of dillapiol derivatives were synthesized and assayed for their capacity to inhibit human cytochrome CYP3A4. For each molecule, experimental IC50 values for CYP3A4 inhibition were determined. These IC50 values together with the log of the octanol-water partition coefficient (logP) and molecular refractivity (MR) are shown in Table 1, and were used as parameters to model a quantitative structure-activity relationship (QSAR). The resulting equations were used to guide the design of further derivatives with enhanced CYP3A4 inhibition.
as §1

[3] = DBF substrate 1 μM, read-out: IC50 (converted)
[4] = Table 1, CYP3A4 inhibition, read-out: IC50

SMILES | IC50 [1, 3] | % Activity relative to dillapiol = 1 [1] | further results
COc1c(CCCOC(=O)c2ccc(Cl)cc2Cl)cc2c(c1OC)OCO2 | 1.4 µM and 1.43 µM | 6.56 | 
COc1c(CCCOC(=O)c2ccc3c(c2)OCO3)cc2c(c1OC)OCO2 | 2.63 µM | 3.49 | 
CCCCCC(=O)OCCCc1cc2c(c(OC)c1OC)OCO2 | 3.25 µM | 2.82 | 
COc1c(CCCOCc2ccccc2)cc2c(c1OC)OCO2 | 6.66 µM | 1.38 | 
COc1c(CCCOC(=O)CCCc2ccccc2)cc2c(c1OC)OCO2 | 4.14 µM | 2.22 | 
COc1c(CCCOCc2ccc(F)cc2)cc2c(c1OC)OCO2 | 10.3 µM | 0.89 | 
COc1c(CCCOC(=O)c2ccc(Cl)cc2)cc2c(c1OC)OCO2 | 1.56 µM | 5.89 | 
COc1c(CCCOC(=O)/C=C/c2ccccc2)cc2c(c1OC)OCO2 | 2.38 µM | 3.86 | 
C/C=C(\C)C(=O)OCCCc1cc2c(c(OC)c1OC)OCO2 | 1.55 µM | 5.9 | 
COc1c(CCCOC(C)=O)cc2c(c1OC)OCO2 | 9.22 µM and 9.21 µM | 1 | 
COc1c(CCCOC(=O)c2ccccc2Cl)cc2c(c1OC)OCO2 | 5.27 µM | 1.75 | 
COc1cc2c(cc1CCCOC(=O)/C=C/c1ccccc1)OCO2 | 4.73 µM | 1.94 | 
C=CCc1cc2c(cc1OCc1cc(OC)ccc1OC)OCO2 | 2.15 µM | 4.27 | 
C=CCc1cc2c(cc1OCc1ccccc1)OCO2 | 1.44 µM and 1.43 µM | 6.37 | 
CCCc1cc2c(cc1OC)OCO2 |  |  | IC50 ([1]; IC50, DBF substrate 1 μM): > 26 µM
O=C(/C=C/c1ccccc1)OCCCc1cc2c(cc1OCc1ccccc1)OCO2 | 8 µM and 7.92 µM | 1.125 | 
COc1c(CCCOC(=O)c2ccc([N+](=O)[O-])cc2)cc2c(c1OC)OCO2 | > 13 µM |  | 
COc1c(CCCOC(=O)C(C)(C)C)cc2c(c1OC)OCO2 | 2.78 µM and 2.77 µM | 3.3 | 
COc1c(CCCOC(=O)C2CCCCC2)cc2c(c1OC)OCO2 | 1.9 µM | 4.83 | 

SMILES | IC50 [1, 3] | % Activity relative to dillapiol = 1 [1] | further results
OCCCc1cc2c(cc1OCc1ccccc1)OCO2 | 3 µM | 3 | 
COc1cc2c(cc1CCCO)OCO2 | 4.05 µM and 4.04 µM | 2.25 | 
COc1c(CCCOC(=O)Cc2ccccc2)cc2c(c1OC)OCO2 |  | 4.83 | IC50 ([1]; IC50, DBF substrate 1 μM): 1.9 µM
O=C(CCCC/C=C/c1ccc2c(c1)OCO2)OCCCO | 4.1 µM and 4.08 µM | 2.2 | 
OCCCCc1ccc2c(c1)OCO2 | > 26 µM |  | 
COc1c(CCCC(O)(c2ccccc2)c2ccccc2)cc2c(c1OC)OCO2 | 1.06 µM | 8.7 | 
COc1c(CC/C=C/C(=O)NC(C)C)cc2c(c1OC)OCO2 | 2.1 µM | 4.37 | 
C=CCc1cc2c(cc1OC)OCO2 |  |  | IC50 ([1]; IC50, DBF substrate 1 μM): > 26 µM
COc1c(CCCC(c2ccccc2)c2ccccc2)cc2c(c1OC)OCO2 | > 20 µM |  | 
O=C(O)CCCC/C=C/c1ccc2c(c1)OCO2 | > 20.1 µM |  | 
COc1c(CCC(C)O)cc2c(c1OC)OCO2 (stereo not drawn) | > 20 µM |  | 
COc1c(CCCCO)cc2c(c1OC)OCO2 | 11.6 µM | 0.8 | 
O=C(OCCCc1cc2c(cc1OCc1ccccc1)OCO2)c1ccccc1 | 3.9 µM and 3.84 µM | 2.3 | 
O=C(OCCCc1cc2c(cc1OCc1ccccc1)OCO2)c1ccc2c(c1)OCO2 | 1.4 µM and 1.38 µM | 6.6 | 
C=CCc1cc2c(c(C(O)CCCCCCCC)c1OC)OCO2 (single isomer, unassigned) [Compound 7] |  |  | Rel. Activity Dillapiol = 1.0 ([2]; Table 1): 2.2; IC50 [2, 4]: 190 µM
C=CCc1cc2c(c(C(O)CCCCCCCC)c1OC)OCO2 (stereo not drawn) [Compound 2] |  |  | CYP3A4 inhibition compared with dillapiol (in words) ([2]; Table 1): at least four times lower than dillapiol; Rel. Activity Dillapiol = 1.0 ([2]; Table 1): 15; IC50 [2, 4]: 26 µM
C=CCc1cc2c(c(OCCCCCCCC)c1OC)OCO2 [Compound 3] |  |  | Rel. Activity Dillapiol = 1.0 ([2]; Table 1): 1.3; IC50 [2, 4]: 320 µM
C=CCc1cc2c(c(CO)c1OC)OCO2 [Compound 4] |  |  | Rel. Activity Dillapiol = 1.0 ([2]; Table 1): 0.45; IC50 [2, 4]: 900 µM
C=CCc1cc2c(c(COC)c1OC)OCO2 [Compound 5] |  |  | Rel. Activity Dillapiol = 1.0 ([2]; Table 1): 1.3; IC50 [2, 4]: 320 µM

SMILES | IC50 [1, 3] | % Activity relative to dillapiol = 1 [1] | further results
C=CCc1cc2c(c(/C=C/C(=O)OC)c1OC)OCO2 [Compound 6] |  |  | Rel. Activity Dillapiol = 1.0 ([2]; Table 1): 1.7; IC50 [2, 4]: 240 µM
C=CCc1cc2c(c(C=O)c1OC)OCO2 [Compound 8] |  |  | Rel. Activity Dillapiol = 1.0 ([2]; Table 1): 0.66; IC50 [2, 4]: 620 µM
C=CCc1cc2c(c(CC=C)c1OC)OCO2 [Compound 9] |  |  | IC50 [2]: 810 µM; Rel. Activity Dillapiol = 1.0 ([2]; Table 1): 2.0
C=CCc1cc2c(c(O)c1OC)OCO2 [Compound 10] |  |  | IC50 [2]: 1600 µM; Rel. Activity Dillapiol = 1.0 ([2]; Table 1): 0.26
COc1c(CCCOC(=O)C(c2ccccc2)c2ccccc2)cc2c(c1OC)OCO2 [Compound 48] |  |  | CYP3A4 inhibition (in words) [1]: potent inhibitor
COc1ccc(OC)c(COc2cc3c(cc2CCCOC(=O)c2ccccc2)OCO3)c1 [Compound 50] |  |  | CYP3A4 inhibition (in words) [1]: strong CYP3A4 inhibitors
COc1c(C/C=C/Cc2cc3c(c(OC)c2OC)OCO3)cc2c(c1OC)OCO2 [Compound 56] | 1.8 µM | 5.1 | % Activity relative to dillapiol = 1 ([1]; listed as drawing 59): 5.1
OC(CCCC/C=C/c1ccc2c(c1)OCO2)(c1ccccc1)c1ccccc1 [Compound 59] | 0.54 µM and 0.517 µM | 17 | 
COc1cc2c(cc1CCCOC(=O)C(c1ccccc1)c1ccccc1)OCO2 [Compound 61] | 0.47 µM | 19.5 | CYP3A4 inhibition (in words) [1]: strong CYP3A4 inhibitors
COc1cc2c(cc1CCCOC(=O)c1ccccc1)OCO2 [Compound 63] |  |  | CYP3A4 inhibition (in words) [1]: strong CYP3A4 inhibitors
COc1ccc(OC)c(COc2cc3c(cc2CCCOC(=O)C(c2ccccc2)c2ccccc2)OCO3)c1 [Compound 69] |  |  | CYP3A4 inhibition (in words) [1]: strong CYP3A4 inhibitors
O=C(OCCCc1cc2c(cc1OCc1ccccc1)OCO2)C(c1ccccc1)c1ccccc1 [Compound 70] |  | 4 | CYP3A4 inhibition (in words) [1]: strong CYP3A4 inhibitors
C=CCc1cc2c(cc1O)OCO2 [drawing 54] | > 28.1 µM |  | 
COc1c(CCCOC(=O)C(c2ccccc2)c2ccccc2)cc2c(c1OC)OCO2 [drawing 58] | 0.434 µM | 21.15 | 
COc1ccc(OC)c(COc2cc3c(cc2CCCOC(=O)c2ccccc2)OCO3)c1 [drawing 60] | 0.36 µM and 0.355 µM | 25.5 | 
COc1c(C/C=C/Cc2cc3c(c(OC)c2OC)OCO3)cc2c(c1OC)OCO2 [drawing 66] | 1.44 µM | 6.3 | 
COc1cc2c(cc1CCCOC(=O)c1ccccc1)OCO2 [drawing 73] | 2.07 µM | 4.4 | 
COc1ccc(OC)c(COc2cc3c(cc2CCCOC(=O)C(c2ccccc2)c2ccccc2)OCO3)c1 [drawing 79] | 0.23 µM | 41 | 
O=C(OCCCc1cc2c(cc1OCc1ccccc1)OCO2)C(c1ccccc1)c1ccccc1 [drawing 80] | 0.62 µM and 0.624 µM | 14 | 
